Results from patent publication US9949981B2, “Compositions and methods for treating proliferation disorders” (Arqule, Inc., priority 2014, dated 2018).
Like-named read-outs stand apart in the source and are kept apart here.

Experiments:
[1] = tested on: pAKT in KU-19-19 (E17K) mutant bladder cancer cells; experiment: pAKT in KU-19-19 cells, two hour treatment; conditions: normal medium, 2 hours, FIGS. 17 and 18
[2] = tested on: pPRAS40 in KU-19-19 (E17K) mutant bladder cancer cells; experiment: pPRAS40 in KU-19-19 cells, two hour treatment; conditions: normal medium, 2 hours, FIGS. 17 and 18
[3] = molecular target: AKT1 (Homo sapiens, UniProt P31749); experiment: Inactive AKT Alpha Screen Assay
Chain of AKT1 (P31749 whole entry): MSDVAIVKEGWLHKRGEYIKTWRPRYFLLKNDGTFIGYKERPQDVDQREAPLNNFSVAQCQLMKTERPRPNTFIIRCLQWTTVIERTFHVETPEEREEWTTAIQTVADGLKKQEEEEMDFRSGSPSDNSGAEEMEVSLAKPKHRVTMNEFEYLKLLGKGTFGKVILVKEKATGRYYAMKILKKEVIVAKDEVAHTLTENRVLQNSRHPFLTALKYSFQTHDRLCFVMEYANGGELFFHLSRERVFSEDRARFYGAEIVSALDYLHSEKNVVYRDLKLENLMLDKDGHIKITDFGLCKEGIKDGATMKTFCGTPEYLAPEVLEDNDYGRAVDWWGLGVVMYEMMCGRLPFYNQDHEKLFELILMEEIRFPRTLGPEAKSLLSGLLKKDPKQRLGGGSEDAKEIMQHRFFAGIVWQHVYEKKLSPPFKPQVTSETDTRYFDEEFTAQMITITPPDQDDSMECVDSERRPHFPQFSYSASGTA

[4] = tested on: Proteus single cell clones (A6B AKT1 p.E17K positive and E8F9A mutation negative cells); experiment: Viability of Proteus single cell clones; assay type: cell-based, human; conditions: presence or absence of serum; 24 hours serum starvation; 72 hours; FIGS. 5A and 5B
[5] = tested on: S6 phosphorylation in Proteus single cell clones; conditions: F6B mutation positive and H4A mutation negative clones; with or without serum; FIGS. 16A and 16B
[6] = tested on: AKT1 phosphorylation in Proteus single cell clones; conditions: FIG. 15

For `NC1(c2ccc(-c3nc4ccn5c(=O)[nH]nc5c4cc3-c3ccccc3)cc2)CCC1` [MK-2206, reference compound], the pAKT [1] was “inhibit” and the pPRAS40 [2] was “inhibit”.

In the case of `Nc1ncccc1-c1nc2ccc(-c3cccc(N4CCOCC4)c3)nc2n1-c1ccc(C2(N)CCC2)cc1` [Compound 2, 3-(3-(4-(1-aminocyclobutyl)phenyl)-5-(3-morpholinophenyl)-3H-imidazo[4,5-b]pyridin-2-yl)pyridin-2-amine], the IC50 [3] is reported as 2.2 nM.

With `CO[C@H]1C[C@@H]2CC[C@@H](C)[C@@](O)(O2)C(=O)C(=O)N2CCCC[C@H]2C(=O)O[C@H]([C@H](C)C[C@@H]2CC[C@@H](OCCO)[C@H](OC)C2)CC(=O)[C@H](C)/C=C(\C)[C@@H](O)[C@@H](OC)C(=O)[C@H](C)C[C@H](C)/C=C/C=C/C=C/1C` [everolimus] the “viability of Proteus single cell clones” value [4] was “mutation positive cells are more sensitive than control cells”, the pS6 levels [5] was “greatly decreases pS6 levels” and the pAKT/AKT ratio ([6]; F6B AKT1 p.E17K mutant cells in serum free conditions) was “decreases the pAKT/AKT ratio”. For the same molecule, the pAKT/AKT ratio ([6]; mutant negative cells (H4A) or mutant cells gown in serum free conditions) was “has no effect or increases the ratio”.
